Assay results as given in US10933074B2, “Methods for improving the gastrointestinal tolerance of food and beverage products comprising sweet, low-digestible carbohydrates” (Tate & Lyle Ingredients Americas LLC, priority 2015, dated 2021).

System: volunteers
Parameters: species or system human
Conditions: in vivo
Protocol: In this Example, subjects tested 4 different beverages, consumed in the morning with at least one week washout between test days. The beverages were consumed on an empty stomach, and there was instruction for subjects to wait 2 hours before having any other food. The primary outcome was the total gastrointestinal symptom scores over 24-hours for loose stool GI symptom derived from a GI symptoms rating diary. The 4 test beverages (8 oz./236.6 ml) were flavoured with a strawberry mix and contained: 1) 25 g of D-allulose; 2) 25 g of D-allulose and 25 g of D-glucose; 3) 25 g of D-allulose and 1 g of beta-glucan fiber; or 4) 25 g of sucrose. […] On the day of the test, the subjects followed the below set of instructions: • 1. Testing start times begin when you start consuming the drink; record date and time you begin on the diary. • 2. Consume the test drink at the same time each week. • a. Consume the entire drink 8 oz. (236.6 ml) drink in under 15 minutes. • b. Refill the drink container with water and consume as a chaser. • c. You may have additional water after 60 minutes as desired. • 3. Record GI symptom scores at 2, 4 and 24-hours after starting drink consumption. • 4. You may eat a snack or breakfast 2 hours after the test drink. • 5. Record all bowel movements and the Bristol Stool type during the 24-hour observation period. • 6. Resume normal food consumption for the day; however avoid foods which you know may cause gastric upset or gas for the 24-hour observation period. […] The Bristol Stool test scores were scored from 1-7. […]

number of people reporting symptoms: greatest
stool softening (Bristol Stool test score, 24 hour average): softening effect
Compound: O=C(CO)[C@H](O)[C@H](O)[C@H](O)CO [D-allulose]
order of softer stools: allulose>allulose+beta-glucan>allulose+D-glucose>sucrose
